Data on 56 molecules can be found in PubChem BioAssay AID602210 (Sanford-Burnham Center for Chemical Genomics, 2012).

Molecules are shown by their SMILES. Activity calls are given as the source filed them. How the calls were made is not given here.

Usually IC50 stands for the concentration that gives 50% inhibition.

The test in a line: H9c2 cardiomyoblast viability modulators under 2-DG – cell-based, ATPlite luminescence, rat, set 2, myocardial damage modulator project, dose response (AID 602210). Conditions: H9c2 rat cardiomyoblasts, 2-deoxyglucose-induced death, 2 h. Background: Cellular ATP, detected with luciferase, serves as a proxy for viable cell number.
Regarding `COc1ccc(-c2cc(C(=O)NC(C)c3ccccn3)c3ccccc3n2)cc1OC` (stereo unspecified), the IC50 is 13.4 µM (inactive). For `C=C1C(C)C2C(Cc3ccccc3)NC(=O)C23OC(=O)/C=C/C(O)CCCC(C)C/C=C/C3C1O` (stereo unspecified), the 50% inhibitory concentration (IC50) was 0.95 µM. As to `COc1cc(NC(=O)c2cc([N+](=O)[O-])ccc2NC(=O)CN2CCN(c3ccccn3)CC2)cc(OC)c1`, the IC50 was > 79 µM (inactive). With `O=C(c1cc(=O)[nH]c2ccccc12)N1CCN(S(=O)(=O)c2ccc3ccccc3c2)CC1`, the IC50 is 17.4 µM (inactive).

On to `COc1cccc(CN(C)C(=O)C(Cc2ccccc2)NC(=O)c2ccccc2)c1OC` (stereo unspecified), for which the IC50 is 20.8 µM (inactive). The value for `Cc1nc(SCC(=O)N2CCN(c3ccccc3)CC2)c2oc3ccccc3c2n1` was 25.8 µM (inactive); that for `CC(C)(C)NC(=O)c1cccc(NC(=O)c2ccc(NC(=O)c3ccco3)cc2)c1` was 18.9 µM (inactive).

For `COc1ccc(C(C(=O)NCc2ccccc2)N(Cc2cccs2)C(=O)c2cnccn2)cc1` (stereo unspecified), the IC50 was 23 µM (inactive).

`COC(=O)c1cc(C(=O)OCC(=O)N2c3ccccc3NC(=O)C2(C)C)cc([N+](=O)[O-])c1`: the IC50 is 47.6 µM (inactive). The value for `O=C(NCC(=O)N(Cc1cccs1)C(C(=O)NC1CCCCC1)c1ccco1)c1ccco1` (stereo unspecified) was 18.5 µM (inactive); that for `COC(=O)C1=C(C)N(CCc2ccc(OC)cc2)C(=O)C1` was 33.5 µM (inactive); that for `CCOC(=O)N1CCC(n2c(SCC(=O)N3CCC(C)CC3)nc3ccccc3c2=O)CC1` was 31.6 µM (inactive).

As to `c1cc2[nH]snc2c2nc(C3CC3)nc12`, the IC50 was 10.6 µM (inactive).

Regarding `COc1ccc(-c2cc(C(=O)NNC(=O)c3csc(N4CCOCC4)n3)c3ccccc3n2)cc1`, the IC50 was 7.31 µM.

Consider `O=C(Nc1cccc(NC(=O)c2ccc([N+](=O)[O-])o2)c1)c1ccco1`, for which the IC50 is 3.85 µM. Regarding `COc1cc(CCNc2ccc3nnc(-c4ccccc4)n3n2)cc(OC)c1OC`, the IC50 is 30.6 µM (inactive). Next, `Cc1ccc2nc(-c3ccccc3)cc(C(=O)NNC(=O)c3csc(N4CCOCC4)n3)c2c1`: 12.4 µM (inactive); `COc1cc(-c2cc(NC(C)=O)c3ncc(-c4ccc(F)cc4)n3c2)cc(OC)c1OC`: 8.78 µM; `COc1cc(C(=O)Nc2cc3c(cc2N2CCCCC2)n(C)c(=O)n3C)cc(OC)c1OC`: 23.7 µM (inactive). The value for `COc1cc(/C=C/c2nc(-c3ccccc3O)n[nH]2)cc(OC)c1OC` was > 79 µM (inactive). The value for `CCOc1cc(/C=C/c2ccc3cccc([N+](=O)[O-])c3n2)ccc1OCC(=O)N(C)C` was 18.3 µM (inactive); that for `CC(=O)Nc1ccc(NS(=O)(=O)c2cc(-c3n[nH]c(=O)c4ccccc34)ccc2C)cc1` was 44 µM (inactive).

In the case of `CC1Nc2ncnc(N3CCN(c4ccccc4)CC3)c2N(Cc2ccc(Cl)cc2)C1=O` (stereo unspecified), the IC50 was 21.4 µM (inactive).

In the case of `COc1ccc(Nc2nnc(SCc3cc(=O)n4ccsc4n3)s2)cc1`, the IC50 was 21.7 µM (inactive). The value for `Cc1ccc(-c2nnc(NCc3nc4ccccc4[nH]3)c3ccccc23)cc1S(=O)(=O)N1CCOCC1` was 11.3 µM (inactive). The value for `COc1ccc(-c2oc(=O)c3cc(OC)c(OC)cc3c2C#CCCO)cc1` was 21.7 µM (inactive); that for `CCCCCCn1c(C)nc2c(c1=O)c1nc3ccccc3nc1n2/N=C/c1ccco1` was 11.2 µM (inactive). Take `COc1cc(/C=C/C(=O)Nc2ccc3nc4n(c(=O)c3c2)CCCC4)cc(OC)c1OC`: the IC50 is 20.6 µM (inactive).

Consider `COc1ccc(-c2ccc3c(c2)S(=O)(=O)c2cccc(C(=O)N4CCN(c5c(Cl)cncc5Cl)CC4)c2C3=O)cc1OC`, for which the IC50 is 8.36 µM. For the molecule `CC(=O)c1cccc(Nc2nc3ccccc3n3cnnc23)c1`, the IC50 was 8.67 µM. The value for `O=C(NC1CCCCC1)C(c1ccc2ncccc2c1)N(Cc1ccco1)C(=O)c1ccc2c(c1)OCCO2` (stereo unspecified) was 42.5 µM (inactive); that for `Fc1ccc(-n2cc(-c3ccccc3)c3c(N4CCOCC4)ncnc32)cc1` was 6.7 µM. Next, `CCOC(=O)c1ccccc1OCc1cc(/C=N/NC(=O)c2cccnc2)ccc1OC`: 6.98 µM. In the case of `C[C@@H](NC(=O)c1nc[nH]c1C(=O)NCC(=O)OCc1ccccc1)c1ccccc1`, the IC50 was 9.89 µM.

In the case of `COc1ccc(OC)c(N(CC(=O)Nc2cccnc2)S(=O)(=O)c2ccc(OC)c(OC)c2)c1`, the IC50 is 32.2 µM (inactive).

For the molecule `Brc1cc2c(cc1/C=N/Nc1nc(N3CCCC3)nc(N3CCOCC3)n1)OCO2`, the IC50 is 16 µM (inactive).

On to `CCN(C[C@H]1N[C@@](Cc2ccccc2)(C(=O)OC)[C@H]2C(=O)N(C)C(=O)[C@@H]12)S(=O)(=O)c1ccc(OC)cc1`, for which the IC50 was > 79 µM (inactive). Turning to `CCOc1ccc2ccccc2c1C(=O)N[C@@H]1C(=O)N2[C@@H]1SC(C)(C)[C@@H]2C(=O)O`, the IC50 is 36.1 µM (inactive). Next, `COC(=O)c1ccc(C(C(=O)NCc2ccccc2)N(Cc2cccs2)C(=O)c2cnccn2)cc1` (stereo unspecified): 13.4 µM (inactive). For `COc1cc(NC(=O)c2ccc(-c3cn[nH]c3)c3ccoc23)cc(OC)c1OC`, the IC50 is 15.4 µM (inactive). As for `COCCn1c(=NC(=O)c2nc3ccccc3s2)sc2cc(S(C)(=O)=O)ccc21`, the IC50 was > 79 µM (inactive). Next, `Cc1nn(C)cc1C(C(=O)NC1CCCCC1)N(C(=O)Cc1cccs1)c1ccc(Cl)cc1` (stereo unspecified): 29.8 µM (inactive); `O=C(NCCc1c[nH]c2ccccc12)C(=O)NCC(c1ccco1)N1CCN(c2ccccc2F)CC1` (stereo unspecified): > 79 µM (inactive). Next, `O=C(N/N=C/c1ccc(-c2cccc([N+](=O)[O-])c2)o1)c1ccc([N+](=O)[O-])cc1`: 11.8 µM (inactive); `COc1cccc(C(=O)Nc2c(C(N)=O)oc3ccccc23)c1`: 15.1 µM (inactive).

As to `NC(=O)c1nsc(C(=O)N(c2ccccc2F)C(C(=O)NCc2ccc(F)cc2)c2ccc(O)cc2)c1N` (stereo unspecified), the 50% inhibitory concentration (IC50) was 3.13 µM. As for `CNC(=O)c1cccc(NC(=O)c2cc(-c3ccccc3)nc3c2cnn3C(C)C)c1`, the IC50 was 14.3 µM (inactive). The value for `O=C(CN1CCCCC1)Nc1nc(-c2ccc(F)c(F)c2)cs1` was > 79 µM (inactive); that for `O=C(Nc1cccc2cccnc12)c1ccc2sc([C@H]3C[C@H](O)[C@@H](CO)O3)nc2c1` was 24.3 µM (inactive). As for `CNC(=O)COC(=O)/C=C/c1cn(-c2ccccc2)nc1-c1ccc(C)o1`, the IC50 is 14.6 µM (inactive). Next, `COc1ccccc1-c1cc(NC(C)=O)c2ncc(-c3cccc(C(C)=O)c3)n2c1`: > 79 µM (inactive). As for `COc1ccc(C(C(=O)NC2CCCC2)N(C(=O)c2snc(C(N)=O)c2N)c2cccc(O)c2)cc1` (stereo unspecified), the IC50 was 13.3 µM (inactive). Consider `COc1cc(-c2cc(C(=O)NCc3ccco3)c3ccccc3n2)cc(OC)c1OC`, for which the IC50 was 16.4 µM (inactive). Next, `CN(C)S(=O)(=O)c1ccc2[nH]cc(/C=C/c3nc4ccccc4c(=O)n3-c3ccccc3)c2c1`: 4.24 µM; `Cc1cccc(NC(=O)c2nc[nH]c2C(=O)NCC(=O)OCc2ccccc2)c1`: > 79 µM (inactive); `O=C1OCCN1C(=O)[C@H]1[C@H](c2ccc([N+](=O)[O-])cc2)C(c2ccc(F)cc2)=NN1c1ccc(Br)cc1`: 8.93 µM.
